Legend:
[1] = Conjugate 1 tumor uptake with Vorinostat pre-treatment; type: in vivo, mice bearing NCI-H69 tumors; details: Vorinostat pre-treatment vs none; P=0.03
Description: In vivo, mice bearing NCI-H69 tumors were pre-treated with Vorinostat then administered Conjugate 1. Tumors were analyzed for Conjugate 1 concentrations.

[2] = tested on: NCI-H727 (lung carcinoid) xenograft; test: Conjugate 1 and Vorinostat combination in NCI-H727 xenograft model; type: in vivo, mice; details: very low SSTR2 (IRS 1)
[3] = tested on: xenograft models that over-express SSTR2; test: Preclinical single agent studies in xenograft models that over-express SSTR2; type: in vivo; details: single agent Conjugate 1 treatment
Source text: The targeting peptide of Conjugate 1 selectively binds to SSTR2, triggers receptor internalization leading to the accumulation of the DM1 to provide antitumor activity by disrupting microtubule networks causing apoptosis and mitotic catastrophe.

[4] = tested on: NCI-H69 cells; test: Conjugate 1 potency in vitro with and without Vorinostat pre-treatment; type: cell-based
Description: In a further study, whether increased SSTR2 expression would result in better delivery of Conjugate 1 to small cell lung cancer cells (NCI-H69) was evaluated. Conjugate 1 potency with Vorinostat pre-treatment was compared with Conjugate 1 potency without Vorinostat pre-treatment. […].

[5] = tested on: NCI-H69 tumors (small cell lung cancer); test: Low doses of Conjugate 1 with Vorinostat, same-day start or pre-treatment, in NCI-H69 model; type: in vivo; details: mice
Description: In a further study with NCI-H69 model (small cell lung cancer), low doses of Conjugate 1 were given to tumor bearing mice and tumor regression was tracked. 1/3 MTD of Conjugate 1 is 0.7 mpk. 1/6 MTD of Conjugate 1 is 0.35 mpk.
Mice bearing NCI-H69 tumors were treated with a combination of Vorinostat and Conjugate 1 starting on the same day or pre-treated with Vorinostat for 4 days IP then administered low doses of Conjugate 1. In total, mice received 10 total doses of Vorinostat (q.d×5) and 2 doses of Conjugate 1 (q.w.×2).
. No significant body weight loss was observed during these studies. […]

[6] = tested on: SSTR2; test: SSTR2 expression by IHC after Vorinostat treatment; type: in vivo, mice bearing NCI-H69 tumors
Description: Mice bearing NCI-H69 tumors (small cell lung cancer) were treated with Vorinostat for 10 days IP (q.d.×5). Tumors were collected and processed for SSTR2 expression by IHC.
On Day 6 the IRS score doubled from 6 in the vehicle to 12 in the treated group. The immunoreactive score (IRS) is determined by multiplying the staining intensity in four gradations with the percentage of positive cells in five gradations.

| SMILES | Conjugate 1 concentrations in tumors [1] | activity as a single agent [2] | tumor regression [3] | Conjugate 1 potency ([4]; with Vorinostat pre-treatment vs without, NCI-H69 cells in vitro) | 1/3 MTD [5] [mpk] | 1/6 MTD [5] [mpk] | NCI-H69 cell proliferation ([4]; Vorinostat alone) | IRS score (SSTR2 expression in tumors) ([6]; NCI-H69 tumors, Day 6, Vorinostat IP q.d.x5, vehicle 6) | SSTR2 expression in normal spleen tissues ([6]; normal spleen after Vorinostat treatment) |
| --- | --- | --- | --- | --- | --- | --- | --- | --- | --- |
| COc1cc2cc(c1Cl)N(C)C(=O)C[C@H](OC(=O)[C@H](C)N(C)C(=O)CCSSC[C@H](NC(=O)[C@@H]1CSSC[C@H](NC(=O)[C@H](N)Cc3ccccc3)C(=O)N[C@@H](Cc3ccc(O)cc3)C(=O)N[C@H](Cc3c[nH]c4ccccc34)C(=O)N[C@@H](CCCCN)C(=O)N[C@@H]([C@@H](C)O)C(=O)N1)C(N)=O)C[C@]1(C)O[C@H]1[C@H](C)[C@@H]1C[C@@](O)(NC(=O)O1)[C@H](OC)C/C=C/C=C(\C)C2 [Conjugate 1] | statistically significant (P=0.03) increase | no activity | complete and sustained tumor regression | an increase in Conjugate 1 potency was observed | 0.7 | 0.35 | – | – | – |
| O=C(CCCCCCC(=O)Nc1ccccc1)NO [Vorinostat, vorinostat] | – | – | – | – | – | – | no effect | 12 | an increase in expression was not observed |

— patent US20210186978A1, “COMBINATION THERAPY” (TARVEDA THERAPEUTICS, INC., priority 2018, published 2021)
